This assay deals with Plasmodium berghei. Put plainly: Luciferase/luciferin-expressing antifolate-resistant parasites were used to infect a culture of HepG2 cells that were pre-incubated with compounds. Infected hepatocytes emit light due to the luciferase reaction. Assay results are presented as the percent inhibition of light emission compared to control. […]. Type of assay: functional. The following applies: sporozoite; for IC90: read-out: LUCIFERASE INFECTION ASSAY - IC90.

Setting [1] is: read-out: LUCIFERASE INFECTION ASSAY - IC50.

Some results are limits rather than exact numbers.

Broadly, the IC50 is the concentration that inhibits the measured activity by half. For orientation: IC90 means the concentration at which the effect reaches the 90% level.

In the case of `CCOc1ccc(S(=O)(=O)/N=C2\C=C3N(CCO)CCOC3(O)c3ccccc32)cc1` (configuration not stated), the concentration for an effect of 90% (IC90) was more than 10 µM. Moreover, under “PBLUC_HILL_SLOPE 3.7, PBLUC_R_SQUARED 0.815, read-out: LUCIFERASE INFECTION ASSAY - IC50”, the 50% inhibitory concentration (IC50) stood at 7.21 µM.
For `CN1CCN(c2ccc(-c3cn4c(-c5ccc6ncccc6c5)cnc4cn3)cn2)CC1`, the 90% effect concentration (IC90) came to 3.03 µM. In addition, where the note is “HEPG2TOX_HILL_SLOPE 4.41, HEPG2TOX_R_SQUARED 0.745, PBLUC_HILL_SLOPE 17.7, PBLUC_R_SQUARED 0.338, read-out: LUCIFERASE INFECTION ASSAY - IC50”, the IC50 worked out at 2.68 µM.
Regarding `CC(C)(C)c1ccccc1NC(=O)Nc1nc(C(N)Cc2ccc(Cl)cc2)cs1` (configuration not stated), the IC90 is 5.51 µM. The IC50 (PBLUC_HILL_SLOPE 4.24, PBLUC_R_SQUARED 0.754, read-out: LUCIFERASE INFECTION ASSAY - IC50) is 3.28 µM.
Turning to `CC(=O)O[C@H]1CC[C@]23C(=O)O[C@]45CC[C@H](C6=CC(=O)OC6)[C@@]4(C)CCC2C5CC[C@]3(O)C1`, the concentration for an effect of 90% (IC90) amounted to 0.747 µM. For the same molecule, for the setting “HEPG2TOX_HILL_SLOPE 2.43, HEPG2TOX_R_SQUARED 0.931, PBLUC_HILL_SLOPE 2.64, PBLUC_R_SQUARED 0.666, read-out: LUCIFERASE INFECTION ASSAY - IC50”, the IC50 was found to be 0.325 µM.
Take `Cc1nnc(-c2cccc(NC(=O)c3ccc4c(c3)CCO4)c2)[nH]1`: the concentration for an effect of 90% (IC90) was more than 10 µM. For the same molecule, the IC50 under setting [1] is more than 10 µM.
Consider `Clc1ccc(Sc2ncnc3sccc23)cc1`, for which the 90% effect concentration (IC90) is more than 11.8 µM. The IC50 under setting [1] was more than 11.8 µM.
Regarding `CC(C)CN(CC(C)C)CC(O)COc1ccccc1` (configuration not stated), the IC90 was more than 11.8 µM. In addition, the IC50 under setting [1] is more than 11.8 µM.
Turning to `Cc1ccc(C(=O)OC(C)C(=O)N2CCCC2)cc1S(=O)(=O)N1CCCCC1` (configuration not stated), the IC90 came to 1.37 µM. The half-inhibitory concentration (IC50) (PBLUC_HILL_SLOPE 7.98, PBLUC_R_SQUARED 0.937, read-out: LUCIFERASE INFECTION ASSAY - IC50) amounted to 1.04 µM.
Regarding `CC(Oc1ccc(Cl)cc1)C(=O)Nc1sccc1C(N)=O` (configuration not stated), the IC90 came out at 4.27 µM. Moreover, the IC50 (PBLUC_HILL_SLOPE 15.8, PBLUC_R_SQUARED 0.448, read-out: LUCIFERASE INFECTION ASSAY - IC50) came out at 3.72 µM.
Consider `CCOC(=O)c1c(-c2cccs2)csc1NC(=O)c1c(S)n(-c2ccccc2C)c2ccc(C)c[n+]12`, for which the IC90 is more than 10 µM. Also, the IC50 (FFLUC_HILL_SLOPE 11.9, FFLUC_R_SQUARED 0.481, read-out: LUCIFERASE INFECTION ASSAY - IC50) is more than 10 µM.
Regarding `CC(C)n1ncc2cc(C(=O)Nc3cccc4c3CCCC4)cnc21`, the IC90 stood at 8.92 µM. For the same molecule, the IC50 (HEPG2TOX_HILL_SLOPE 1.91, HEPG2TOX_R_SQUARED 0.864, PBLUC_HILL_SLOPE 1.61, PBLUC_R_SQUARED 0.644, read-out: LUCIFERASE INFECTION ASSAY - IC50) stood at 2.28 µM.
In the case of `COc1ccc(OCc2nnc(SCC(=O)NCC3CCCO3)n2N)cc1` (configuration not stated), the IC90 was more than 10 µM. In addition, under setting [1], the IC50 is more than 10 µM.
Consider `Nc1c(C(=O)Nc2nc3ccccc3s2)sc2ncccc12`, for which the IC90 turned out to be 0.512 µM. Moreover, the IC50 under setting [1] was 0.00465 µM.
`Cn1c2ccccc2c2ccc(CC(=O)N/N=C/c3ccccc3)cc21`: the IC90 is more than 10 µM. Moreover, under setting [1], the 50% inhibitory concentration (IC50) was more than 10 µM.
In the case of `Cc1cc(CSc2nnc(CN3CCCCC3)n2-c2ccc(F)cc2)on1`, the IC90 is more than 10 µM. Further, the concentration for half-maximal inhibition (IC50) under setting [1] was more than 10 µM.
Turning to `Cc1cccc(-c2nn(-c3ccccc3)cc2/C=C2\CCn3c2nc2cc(Cl)ccc2c3=O)c1`, the concentration for an effect of 90% (IC90) was more than 10 µM. The IC50 (FFLUC_HILL_SLOPE 2.22, FFLUC_R_SQUARED 0.239, read-out: LUCIFERASE INFECTION ASSAY - IC50) is more than 10 µM.
Take `CCCn1c(NC(=O)C2CCCCN2S(=O)(=O)c2ccccc2)nc2ccccc21` (configuration not stated): the IC90 was found to be 7.71 µM. Where the note is “PBLUC_HILL_SLOPE 7.3, PBLUC_R_SQUARED 0.749, read-out: LUCIFERASE INFECTION ASSAY - IC50”, the IC50 was 5.71 µM.
As to `CC(C)(c1ccccc1)c1ccc(OCC(O)CNCCSc2ccc(Br)cc2)cc1` (configuration not stated), the 90% effect concentration (IC90) was more than 10 µM. Also, the IC50 under setting [1] is more than 10 µM.
Regarding `O=C1C=CC(=O)N1c1ccccc1Br`, the IC90 was more than 13.1 µM. In addition, the IC50 (PBLUC_HILL_SLOPE 18.8, PBLUC_R_SQUARED 0.535, read-out: LUCIFERASE INFECTION ASSAY - IC50) came to 12.7 µM.
Turning to `O=C(Cc1csc(-c2ccccc2Cl)n1)Nc1cnc2ccccc2c1`, the concentration for an effect of 90% (IC90) is more than 10 µM. For the setting “HEPG2TOX_HILL_SLOPE 0.041, HEPG2TOX_R_SQUARED 0.0816, read-out: LUCIFERASE INFECTION ASSAY - IC50”, the concentration for half-maximal inhibition (IC50) is more than 10 µM.
On to `CCCCc1c(O)cc2n(c1=O)-c1ccc(Cl)cc1C2(C)C`, for which the concentration for an effect of 90% (IC90) is more than 10.4 µM. Besides, the IC50 (HEPG2TOX_HILL_SLOPE 9.65, HEPG2TOX_R_SQUARED 0.788, PBLUC_HILL_SLOPE 4.5, PBLUC_R_SQUARED 0.532, read-out: LUCIFERASE INFECTION ASSAY - IC50) turned out to be 7.82 µM.
For the molecule `C=CCN(c1ccccc1)S(=O)(=O)c1cc(C(=O)NCC2(N3CCCCC3)CCCCC2)ccc1Cl`, the 90% effect concentration (IC90) was more than 10 µM. Also, the concentration for half-maximal inhibition (IC50) (HEPG2TOX_HILL_SLOPE 0.94, HEPG2TOX_R_SQUARED 0.4, PBLUC_HILL_SLOPE 1.67, PBLUC_R_SQUARED 0.0797, read-out: LUCIFERASE INFECTION ASSAY - IC50) was found to be 5.22 µM.
In the case of `COc1ccc(OC)c(NC(=O)c2cc(-c3ccccc3)nn2-c2ccccc2)c1`, the 90% effect concentration (IC90) is more than 10 µM. For the same molecule, the concentration for half-maximal inhibition (IC50) under setting [1] was more than 10 µM.
As to `O=C(Nc1cc(S(=O)(=O)c2ccccc2)cs1)c1cccc(Cl)c1`, the IC90 is more than 8.73 µM. Further, where the note is “FFLUC_HILL_SLOPE 2.16, FFLUC_R_SQUARED 0.469, read-out: LUCIFERASE INFECTION ASSAY - IC50”, the IC50 is more than 8.73 µM.
In the case of `Cc1sc(-c2ccco2)nc1C(=O)Nn1cnc2ccccc21`, the 90% effect concentration (IC90) is more than 10 µM. Under setting [1], the IC50 is more than 10 µM.
On to `O=C(COc1ccccc1SCc1ccc(Cl)cc1)NNC(=O)c1cccc(C(F)(F)F)c1`, for which the concentration for an effect of 90% (IC90) was more than 6.67 µM. Also, the half-maximal inhibitory concentration (IC50) under setting [1] was more than 6.67 µM.
On to `O=C(Nc1nc2ccc(Oc3ccccc3)cc2s1)C1=COCCO1`, for which the concentration for an effect of 90% (IC90) was more than 10 µM. The IC50 (PBLUC_HILL_SLOPE 0.789, PBLUC_R_SQUARED 0.599, read-out: LUCIFERASE INFECTION ASSAY - IC50) amounted to 5.28 µM.
As to `CCOCc1c(C(=O)NC2=C(C(=O)OCC)C(CC)=Nc3ccccc3N2)oc2ccccc12`, the 90% effect concentration (IC90) stood at 8.81 µM. Further, the half-inhibitory concentration (IC50) (PBLUC_HILL_SLOPE 13.2, PBLUC_R_SQUARED 0.167, read-out: LUCIFERASE INFECTION ASSAY - IC50) worked out at 7.46 µM.
For `CC(Sc1nc(-c2ccccc2)c(-c2ccccc2)o1)C(=O)NC1CC1` (configuration not stated), the 90% effect concentration (IC90) is 5.53 µM. Also, the IC50 (PBLUC_HILL_SLOPE 75.9, PBLUC_R_SQUARED 0.255, read-out: LUCIFERASE INFECTION ASSAY - IC50) worked out at 5.37 µM.
`CC(=O)N(/N=C/c1ccc(C(F)(F)F)cc1)C1=NN(C(C)=O)C(c2ccc(C(F)(F)F)cc2)S1` (configuration not stated): the IC90 was more than 6.57 µM. The IC50 under setting [1] is more than 6.57 µM.
As for `Cc1ccc(Cl)cc1NC(=O)C[n+]1ccc(Cc2ccc([N+](=O)[O-])cc2)cc1`, the IC90 is more than 10 µM. Further, where the note is “HEPG2TOX_HILL_SLOPE 5.4, HEPG2TOX_R_SQUARED 0.89, PBLUC_HILL_SLOPE 4.32, PBLUC_R_SQUARED 0.492, read-out: LUCIFERASE INFECTION ASSAY - IC50”, the IC50 turned out to be 6.22 µM.
As to `COc1ccc(C(=O)Nc2ccc3nc(-c4ccccc4OC)nn3c2)cc1OC`, the concentration for an effect of 90% (IC90) was more than 10 µM. Moreover, under setting [1], the IC50 was more than 10 µM.
Turning to `N#CC1=C2C=CC=CN2C(c2ccccc2)(C(F)(F)F)N=C1SCC(=O)Nc1ccc(Cl)c(Cl)c1` (configuration not stated), the IC90 is more than 10 µM. In addition, the IC50 under setting [1] was more than 10 µM.
Take `Cc1cccc(/C=C(\c2nc3ccccc3[nH]2)S(=O)(=O)c2ccccc2)c1`: the IC90 turned out to be 2.31 µM. For the same molecule, for the setting “HEPG2TOX_HILL_SLOPE 1.77, HEPG2TOX_R_SQUARED 0.525, PBLUC_HILL_SLOPE 7.51, 3.20, PBLUC_R_SQUARED 0.576, 0.706, read-out: LUCIFERASE INFECTION ASSAY - IC50”, the IC50 was found to be 1.36 µM.
With `COc1ccc(C(C)(C)C)cc1NC(=O)c1ccc(NC(=O)Nc2ccccc2)s1`, the IC90 came to 5.68 µM. Moreover, the concentration for half-maximal inhibition (IC50) under setting [1] is 5.57 µM.
Take `c1ccc(Oc2cccc(Nc3nccc4nc(-c5ccccc5)[nH]c34)c2)cc1`: the IC90 was 3.51 µM. Also, the IC50 (HEPG2TOX_HILL_SLOPE 1.11, HEPG2TOX_R_SQUARED 0.909, PBLUC_HILL_SLOPE 45.8, PBLUC_R_SQUARED 0.688, read-out: LUCIFERASE INFECTION ASSAY - IC50) worked out at 3.34 µM.
On to `CC(C)N1CCN(c2ccc(-c3cn4c(-c5ccccc5)cnc4cn3)cc2)CC1`, for which the 90% effect concentration (IC90) is more than 8.3 µM. For the same molecule, the IC50 (PBLUC_HILL_SLOPE 2.04, PBLUC_R_SQUARED 0.328, read-out: LUCIFERASE INFECTION ASSAY - IC50) came to 5.96 µM.
Take `CC(C)Cn1c(N)c(C(=O)CSc2nc(=O)c3c4c(sc3[nH]2)CCCC4)c(=O)n(C)c1=O`: the IC90 is more than 10 µM. The IC50 (HEPG2TOX_HILL_SLOPE 0.911, HEPG2TOX_R_SQUARED 0.885, PBLUC_HILL_SLOPE 2, PBLUC_R_SQUARED 0.249, read-out: LUCIFERASE INFECTION ASSAY - IC50) turned out to be 5.58 µM.
Take `Cc1nc(N2CCN(Cc3ccccc3)CC2)nc2c1C(=O)CC(C)C2` (configuration not stated): the concentration for an effect of 90% (IC90) is more than 9.42 µM. Under setting [1], the concentration for half-maximal inhibition (IC50) is more than 9.42 µM.
For the molecule `OCc1ccccc1-c1cn2c(-c3ccc(Oc4ccccc4)cc3)cnc2cn1`, the 90% effect concentration (IC90) came to 8.14 µM. The IC50 under setting [1] worked out at 0.646 µM.
For `CCOC(=O)c1c(N2C(=O)C=CC2=O)sc2c1CCCC2`, the IC90 is more than 10.8 µM. Further, the 50% inhibitory concentration (IC50) (FFLUC_HILL_SLOPE 2.83, FFLUC_R_SQUARED 0.0392, read-out: LUCIFERASE INFECTION ASSAY - IC50) is more than 10.8 µM.

The record behind these values is ChEMBL document CHEMBL4483862, “Open-source discovery of chemical leads for next-generation chemoprotective antimalarials” (2018).
